According to PubChem BioAssay (NCI):
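Cultured in 96-well plates, cells were exposed to test compound for 48 hours across five concentrations. GI50 marks 50% less growth. The concentration for full growth arrest is given as TGI.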

Tests used:
Assay in all cases: NCI tumour cell line growth inhibition, 48 h
[1] = system: 786-0 renal
[2] = system: A498 renal
[3] = system: A549 NSCLC
[4] = system: ACHN renal
[5] = system: BT-549 breast
[6] = system: CAKI-1 renal
[7] = system: CCRF-CEM leukemia
[8] = system: COLO 205 colon
[9] = system: DU-145 prostate
[10] = system: EKVX NSCLC
[11] = system: HCC-2998 colon
[12] = system: HCT-116 colon
[13] = system: HCT-15 colon
[14] = system: HL-60(TB) leukemia
[15] = system: HOP-62 NSCLC
[16] = system: HOP-92 NSCLC
[17] = system: HS 578T breast
[18] = system: HT29 colon
[19] = system: IGROV1 ovarian
[20] = system: K-562 leukemia
[21] = system: KM12 colon
[22] = system: LOX IMVI melanoma
[23] = system: M14 melanoma
[24] = system: MALME-3M melanoma
[25] = system: MCF7 breast
[26] = system: MDA-MB-231 breast
[27] = system: MDA-MB-435
[28] = system: MOLT-4 leukemia
[29] = system: NCI-H226 lung
[30] = system: NCI-H23 lung
[31] = system: NCI-H460 lung
[32] = system: NCI-H522 lung
[33] = system: NCI/ADR-RES ovarian
[34] = system: OVCAR-3 ovarian
[35] = system: OVCAR-4 ovarian
[36] = system: OVCAR-5 ovarian
[37] = system: OVCAR-8 ovarian
[38] = system: PC-3 prostate
[39] = system: RPMI-8226 leukemia
[40] = system: RXF 393 renal
[41] = system: SF-268 CNS
[42] = system: SF-295 CNS
[43] = system: SF-539 CNS
[44] = system: SK-MEL-2 melanoma
[45] = system: SK-MEL-28 melanoma
[46] = system: SK-MEL-5 melanoma
[47] = system: SK-OV-3 ovarian
[48] = system: SN12C renal
[49] = system: SNB-19 CNS
[50] = system: SNB-75 CNS
[51] = system: SR leukemia
[52] = system: SW-620 colon
[53] = system: T-47D breast
[54] = system: TK-10 renal
[55] = system: U251 CNS
[56] = system: UACC-257 melanoma
[57] = system: UACC-62 melanoma
[58] = system: UO-31 renal

Question: Which results are given for `COc1ccc(-c2cc(-c3ccc(Cl)cc3)nc(SCCCC(=O)NO)n2)cc1`?
Answer: GI50 [1]: 0.594 µM; TGI [1]: 4.52 µM; GI50 [2]: 1.38 µM; TGI [2]: 3.28 µM; GI50 [3]: 1.57 µM; TGI [3]: 7.95 µM; GI50 [4]: 0.379 µM; TGI [4]: 1.88 µM; GI50 [5]: 2.46 µM; TGI [5]: 28.6 µM; GI50 [6]: 0.284 µM; TGI [6]: 1.29 µM; GI50 [7]: 0.222 µM; TGI [7]: > 100 µM; GI50 [8]: 1.69 µM; TGI [8]: 4.4 µM; GI50 [9]: 0.826 µM; TGI [9]: 6 µM; GI50 [10]: 1.21 µM; TGI [10]: 8.76 µM; GI50 [11]: 1.68 µM; TGI [11]: 3.45 µM; GI50 [12]: 0.563 µM; TGI [12]: > 100 µM; GI50 [13]: 0.413 µM; TGI [13]: 1.7 µM; GI50 [14]: 1.65 µM; TGI [14]: > 23 µM; GI50 [15]: 0.902 µM; TGI [15]: 6.66 µM; GI50 [16]: 1.8 µM; TGI [16]: 5.07 µM; GI50 [17]: 2.08 µM; TGI [17]: 11.2 µM; GI50 [18]: 1.41 µM; TGI [18]: 3.77 µM; GI50 [19]: 1.09 µM; TGI [19]: 3.56 µM; GI50 [20]: 1.2 µM; TGI [20]: > 100 µM; GI50 [21]: 1.44 µM; TGI [21]: 4.12 µM; GI50 [22]: 0.153 µM; TGI [22]: 1.32 µM; GI50 [23]: 0.786 µM; TGI [23]: 3.12 µM; GI50 [24]: 1.86 µM; TGI [24]: 7.01 µM; GI50 [25]: 1.81 µM; TGI [25]: 7.43 µM; GI50 [26]: 1.22 µM; TGI [26]: 5.3 µM; GI50 [27]: 1.21 µM; TGI [27]: 3.19 µM; GI50 [28]: 0.796 µM; TGI [28]: > 22 µM; GI50 [29]: 1.49 µM; TGI [29]: 6.89 µM; GI50 [30]: 1.43 µM; TGI [30]: 7.06 µM; GI50 [31]: 0.495 µM; TGI [31]: 3.9 µM; GI50 [32]: 0.704 µM; TGI [32]: 3.26 µM; GI50 [33]: 0.314 µM; TGI [33]: 1.28 µM; GI50 [34]: 0.406 µM; TGI [34]: 2.11 µM; GI50 [35]: 0.849 µM; TGI [35]: 11.6 µM; GI50 [36]: 1.37 µM; TGI [36]: 6.92 µM; GI50 [37]: 0.427 µM; TGI [37]: > 100 µM; GI50 [38]: 0.874 µM; TGI [38]: 3.61 µM; GI50 [39]: 0.771 µM; TGI [39]: > 24.9 µM; GI50 [40]: 0.359 µM; TGI [40]: 1.52 µM; GI50 [41]: 1.15 µM; TGI [41]: 4.27 µM; GI50 [42]: 0.537 µM; TGI [42]: 2.23 µM; GI50 [43]: 1.36 µM; TGI [43]: 3.78 µM; GI50 [44]: 2.42 µM; TGI [44]: 6.94 µM; GI50 [45]: 1.69 µM; TGI [45]: 5.47 µM; GI50 [46]: 1.59 µM; TGI [46]: 3.31 µM; GI50 [47]: 1.67 µM; TGI [47]: 5.68 µM; GI50 [48]: 0.654 µM; TGI [48]: > 20.5 µM; GI50 [49]: 2.18 µM; TGI [49]: > 27.1 µM; GI50 [50]: 1.22 µM; TGI [50]: 5.61 µM; GI50 [51]: 0.358 µM; GI50 [52]: 0.553 µM; TGI [52]: 3.29 µM; GI50 [53]: 0.801 µM; TGI [53]: 7.46 µM; GI50 [54]: 0.499 µM; TGI [54]: 5.78 µM; GI50 [55]: 0.753 µM; TGI [55]: > 22.5 µM; GI50 [56]: 2.31 µM; TGI [56]: 10.4 µM; GI50 [57]: 0.853 µM; TGI [57]: 2.22 µM; GI50 [58]: 0.237 µM; TGI [58]: 1 µM

Question: What does the source list for `COC(=O)c1cc2c3ccccc3n3c(=O)c4cc5ccccc5nc4c(n1)c23`?
Answer: GI50 [1]: > 100 µM; TGI [1]: > 100 µM; GI50 [2]: > 100 µM; TGI [2]: > 100 µM; GI50 [3]: > 100 µM; TGI [3]: > 100 µM; GI50 [4]: > 100 µM; TGI [4]: > 100 µM; GI50 [5]: > 100 µM; TGI [5]: > 100 µM; GI50 [6]: > 100 µM; TGI [6]: > 100 µM; GI50 [7]: > 100 µM; TGI [7]: > 100 µM; GI50 [8]: > 100 µM; TGI [8]: > 100 µM; GI50 [9]: > 100 µM; TGI [9]: > 100 µM; GI50 [10]: > 100 µM; TGI [10]: > 100 µM; GI50 [11]: > 100 µM; TGI [11]: > 100 µM; GI50 [12]: > 100 µM; TGI [12]: > 100 µM; GI50 [13]: > 100 µM; TGI [13]: > 100 µM; GI50 [14]: > 100 µM; TGI [14]: > 100 µM; GI50 [16]: > 100 µM; TGI [16]: > 100 µM; GI50 [17]: > 100 µM; TGI [17]: > 100 µM; GI50 [18]: > 100 µM; TGI [18]: > 100 µM; GI50 [19]: > 100 µM; TGI [19]: > 100 µM; GI50 [20]: > 100 µM; TGI [20]: > 100 µM; GI50 [21]: > 100 µM; TGI [21]: > 100 µM; GI50 [22]: > 100 µM; TGI [22]: > 100 µM; GI50 [23]: > 100 µM; TGI [23]: > 100 µM; GI50 [24]: > 100 µM; TGI [24]: > 100 µM; GI50 [25]: > 100 µM; TGI [25]: > 100 µM; GI50 [26]: > 100 µM; TGI [26]: > 100 µM; GI50 [27]: > 100 µM; TGI [27]: > 100 µM; GI50 [28]: > 100 µM; TGI [28]: > 100 µM; GI50 [29]: > 100 µM; TGI [29]: > 100 µM; GI50 [30]: > 100 µM; TGI [30]: > 100 µM; GI50 [31]: > 100 µM; TGI [31]: > 100 µM; GI50 [32]: > 100 µM; TGI [32]: > 100 µM; GI50 [33]: > 100 µM; TGI [33]: > 100 µM; GI50 [34]: > 100 µM; TGI [34]: > 100 µM; GI50 [35]: > 100 µM; TGI [35]: > 100 µM; GI50 [36]: > 100 µM; TGI [36]: > 100 µM; GI50 [37]: > 100 µM; TGI [37]: > 100 µM; GI50 [38]: > 100 µM; TGI [38]: > 100 µM; GI50 [40]: > 100 µM; TGI [40]: > 100 µM; GI50 [41]: > 100 µM; TGI [41]: > 100 µM; GI50 [42]: > 100 µM; TGI [42]: > 100 µM; GI50 [43]: > 100 µM; TGI [43]: > 100 µM; GI50 [44]: > 100 µM; TGI [44]: > 100 µM; GI50 [45]: > 100 µM; TGI [45]: > 100 µM; GI50 [46]: > 100 µM; TGI [46]: > 100 µM; GI50 [47]: > 100 µM; TGI [47]: > 100 µM; GI50 [48]: > 100 µM; TGI [48]: > 100 µM; GI50 [49]: > 100 µM; TGI [49]: > 100 µM; GI50 [50]: > 100 µM; TGI [50]: > 100 µM; GI50 [51]: > 100 µM; TGI [51]: > 100 µM; GI50 [52]: > 100 µM; TGI [52]: > 100 µM; GI50 [53]: > 100 µM; TGI [53]: > 100 µM; GI50 [54]: > 100 µM; TGI [54]: > 100 µM; GI50 [55]: > 100 µM; TGI [55]: > 100 µM; GI50 [56]: > 100 µM; TGI [56]: > 100 µM; GI50 [57]: > 100 µM; TGI [57]: > 100 µM; GI50 [58]: > 100 µM; TGI [58]: > 100 µM
